From patent US20130078194A1, “COMPOSITIONS FOR DENTAL TREATMENT COMPRISING LIPOTEICHOIC ACIDS OR PARTS THEREOF LIKE MONO- OR POLYGLYCERPHOSPHATES” (LUNAMED AG, priority 2010, published 2013)
Several values for one entry are separate records, joined by “and”; a condition that tells them apart may be missing. Equal values may be shown once.

System: Streptococcus mutans
Assay: Tooth experiment: biofilm formation of Streptococcus mutans on pre-treated human incisors (Safranin staining, phase analysis of pictures)
Type: cell-based
Details: for % Area covered with bacteria: single pictures (4 per tooth), 3 days S. mutans; for % Mean area covered: mean of 4 pictures
Protocol: To investigate the influence of glycerol phosphate, polyglycerol phosphate and LTA-T on the biofilm formation of Streptococcus mutans on human teeth, incisors (1/condition) were preincubated under rotating conditions (50 rpm) at 37° C. for 1 h with: • 1. 5000 μg/ml glycerol phosphate in PBS • 2. 20000 μg/ml glycerol phosphate in PBS • 3. 277 μg/ml polyglycerol phosphate (PGP1) in PBS • 4. 1106 μg/ml polyglycerol phosphate (PGP1) in PBS • 5. 25 μg/ml LTA-T in PBS • 6. PBS as control
These teeth were then washed with ultrapure H2O by repetitive dipping (3 liquid air interfaces) and incubated in a saturated suspension of Streptococcus mutans (in BHI broth, 3% sucrose) under rotating conditions (50 rpm) at 37° C. for 3 days. Each day, bacteria were fed with 1 ml of a solution of 30% sucrose in PBS to enhance biofilm formation. After incubation, the teeth were washed with ultrapure H2O, air dried for 2 h and stained with Safranin (0.5% v/v) solution. The stained teeth were air dried and photographed (see above).
Of each tooth 4 representative pictures were taken. The pictures were analyzed with SigmaPlot Software, Version 11.0 using phase analysis: The color (phase) of the bacterial biofilm was defined and % area of the chosen color on each picture was calculated.
The difference between groups was compared using the unpaired t-test.

Structure (SMILES)	adhesion of bacteria compared to control tooth (pre-treatment 5000 μg/ml)	% Area covered with bacteria (pre-treatment 5000 μg/ml in PBS 1 h)	% Mean area covered (pre-treatment 5000 μg/ml) [%]	adhesion of bacteria compared to control tooth (pre-treatment 20000 μg/ml)	% Area covered with bacteria (pre-treatment 20000 μg/ml in PBS 1 h) [%]	% Mean area covered (pre-treatment 20000 μg/ml) [%]	adhesion of bacteria compared to control tooth (pre-treatment 277 μg/ml)	% Area covered with bacteria (pre-treatment 277 μg/ml in PBS 1 h)	% Mean area covered (pre-treatment 277 μg/ml) [%]	adhesion of bacteria to the tooth surface (pre-treatment 1106 μg/ml)	decrease of biofilm formation compared to control tooth (pre-treatment 1106 μg/ml)	% Mean area covered (pre-treatment 1106 μg/ml) [%]
O=P(O)(O)OC(CO)CO [glycerol phosphate, beta glycerol phosphate]	significantly reduced	0.00% and 0.02%	0.00	significantly reduced	0.00	0.00	–	–	–	–	–	–
O=P(O)(OC[C@H](O)COP(=O)(O)OC[C@H](O)COP(=O)(O)OC[C@H](O)CO)OC[C@@H](O)COP(=O)(O)OC[C@@H](O)CO [PGP1]	–	–	–	–	–	–	significantly reduced	1.93% and 0.19% and 0.08% and 0.40%	0.65	bacteria were still able to adhere to the tooth surface	still significant	15.16
